The results in this text go back to patent publication US20060194815A1, “Methods and compositions for modulating serum cortisol levels” (priority 2003, published 2006).

Entries after “also recorded” stand apart in the source; their conditions may differ.

In the assay the test system is HMG-CoA reductase mRNA. Briefly: HMG-CoA reductase mRNA expression by Q-PCR in Hepa1-6 cells. In kind it is cell-based. The following applies: Hepa1-6 mouse liver hepatoma cells. On the procedure:
After treatment, cells were stimulated with 1 mM dbcAMP for 24 hours. At the end of the incubation, total cell RNA was extracted using. RNA STAT-60 (Tel-Test Inc, Friendswood, Tex.) according to the manufacturer's instructions. HMG-CoA reductase mRNA was quantified by Q-PCR using the ABI Prism 7700 sequence detection system (Perlin-Elmer/Applied Biosystems, Foster City, Calif.). RT reaction was performed using TaqMan® Reverse Transcription Reagents with 1 g total RNA and random hexamers as primers for each reaction according to the manufacturer's instructions. For quantifying mouse HMG-CoA reductase mRNA with Q-PCR, the primers were designed according to GenBank Accession Number BC 019782 using PE/AB Primer Express software, which is specifically designed for the selection of primers and probes. The forward primer was 5′-[…]-3′ (22 nucleotides) and reverse primer was 5′-[…]-3′ (23 nucleotides), respectively. The primers were synthesized by Bio-Synthesis Inc. (Lewisville, Tex.). Reactions were performed in a reaction mixture consisting of a 20 l volume solution containing 10 l SYBR® Green PCR Master Mix and 1 l primers mix (5 M each) with 2 l cDNA.

As for `CCN(CC)CCOC(=O)c1ccc(N)cc1` [procaine], the “dbcAMP-induced HMG-CoA reductase mRNA levels” value was “inhibited; also recorded: robust”.
